System: Mycobacterium tuberculosis H37Rv growth inhibition, no glycerol
Experiment: Confirmatory growth inhibition assay, Mycobacterium tuberculosis H37Rv, absence of glycerol (AID 449764);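 further: growth read after 7 days of incubation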
Conditions: for IC90: measured here: IC90 growth inhibition

## COc1cccc2c1C(=O)c1c(O)c3c(c(O)c1C2=O)C[C@@](O)(C(=O)CO)C[C@@H]3O[C@H]1C[C@H](N)[C@@H](O)[C@H](C)O1
  IC50: 5.87 µM
  IC90: 6.6 µM

## Cc1ccc2c(c1)c(/C=C/c1cc[n+](C)cc1)c(C)n2C
  IC50: 5.82 µM
  IC90: 6.61 µM

## CCOC(=O)CNC(=S)n1cnc(N)n1
  IC50: 45.8 µM
  IC90: > 100 µM

## Cc1cc(NC(=O)c2cc(-c3ccncc3)nc3c(C)cccc23)no1
  IC50: 93.1 µM
  IC90: > 100 µM

## COc1cccc(/C=N/Nc2ncnc3scc(-c4ccccc4)c23)c1O
  IC50: 5.65 µM
  IC90: 6.44 µM

## CCOC(=O)CSc1cc(=O)n(C)c2cc(Cl)ccc12
  IC50: < 0.2 µM
  IC90: 18.3 µM

## O=c1c(-c2cnn(-c3ccccc3)c2)coc2cc(O)ccc12
  IC50: 48.1 µM
  IC90: > 100 µM

## CSc1ncc(C(=O)Nc2ccc(Br)cn2)c(C)n1
  IC50: 1.54 µM
  IC90: 2.93 µM

## CCOc1cc2c(cc1OCC)-n1cccc1C(c1ccc(C(C)C)cc1)NC2 (stereo not drawn)
  IC50: 20.2 µM
  IC90: 28.7 µM

## O=S1(=O)CCC(N=Cc2ccc(-c3ccc(Cl)cc3)o2)C1 (stereo not drawn)
  IC90: > 100 µM

## Cc1ccccc1N1CCN(c2ncnc3c2cnn3Cc2ccc(Cl)cc2)CC1
  IC50: 56.4 µM
  IC90: > 100 µM

## COc1ccccc1N1CCN(/N=C/C(Cl)=C/c2ccccc2)CC1
  IC50: 89.6 µM
  IC90: > 100 µM

## O=C(Nc1cccc(-c2nc3ccccc3s2)c1)c1cc(-n2cnnc2)ccc1Cl
  IC50: 14 µM
  IC90: 22 µM

## Nc1cc([N+](=O)[O-])cc2oc(-c3ccccc3)cc12
  IC90: > 100 µM

## N#Cc1c(-c2ccccc2)c(-c2ccccc2)nn(CC(=O)NNC(=O)Nc2ccc(Cl)c(Cl)c2)c1=O
  IC50: 47.9 µM
  IC90: 54.7 µM

## CCOC(=O)Cn1c(C)c(Br)c(=O)c2cccc(C)c21
  IC50: 23 µM
  IC90: 26.6 µM

## COC(=O)c1c(NC(=O)C(=O)N2CCCC2)sc2c1CC(C)(C)OC2
  IC50: 65.3 µM
  IC90: > 100 µM

## Oc1cccc(-c2nc3ccc4ccccc4c3c3c2CCC3)c1
  IC50: 32.4 µM
  IC90: 54.3 µM

## N/C(=N\OC(=O)Nc1ccc(Cl)c(Cl)c1)c1ncc(C(F)(F)F)cc1Cl
  IC50: 28.9 µM
  IC90: 35.7 µM

## CCOc1ccc(-c2[nH]ncc2-c2ccc(Cl)cc2)c(O)c1
  IC50: 44.8 µM
  IC90: 72.3 µM

## Clc1ccc(CCC(Cn2ccnc2)Sc2c(Cl)cccc2Cl)cc1 (stereo not drawn)
  IC50: 11.8 µM
  IC90: 13.3 µM

## Cc1ccc(C(=O)/C=C/C(=O)c2ccc(C)cc2)cc1
  IC50: 4.34 µM
  IC90: 5.87 µM

## Cc1ccc2ccc3ccc(C)nc3c2n1
  IC50: 1.4 µM
  IC90: 2.11 µM

## CN(C)C(=O)c1ccc(NC(=O)COC(=O)c2cc3c(s2)CCCCC3)cc1
  IC50: 91.6 µM
  IC90: > 100 µM

## C/C(=N\NC(=O)c1nnn(-c2nonc2N)c1CN(C)c1ccccc1)c1ccccn1
  IC50: 11.9 µM
  IC90: 13.6 µM

## CSc1cccc(NC(=O)CCS(=O)(=O)c2cccc3nonc23)c1
  IC50: 5.57 µM
  IC90: 9.26 µM

## O=[N+]([O-])c1cnc(Nc2ccc(Cl)cn2)c([N+](=O)[O-])c1
  IC50: 90.3 µM
  IC90: 99.4 µM

## Cc1cc(C)n(-c2ccc(C(=O)Oc3ccc4c(c3)OCO4)cc2)n1
  IC50: 11.7 µM
  IC90: > 100 µM

## Cn1cnc(Sc2ncnc3nc[nH]c23)c1[N+](=O)[O-]
  IC50: 12.1 µM
  IC90: 21.1 µM

## CCCCNC(=S)N/N=C/c1cccc(OCC)c1O
  IC50: 10.8 µM
  IC90: 11.9 µM

## C=C(C)CSc1cc(C)c(C#N)c2nc3ccccc3n12
  IC50: 31.5 µM
  IC90: 52.3 µM

## CN(C)S(=O)(=O)c1cccc(NC(=O)CSc2cccc3cccnc23)c1
  IC50: 60.6 µM
  IC90: 68.2 µM

## Nc1c(C(=O)NC2CCCCC2)nsc1C(=O)OCC(=O)NC1CCCCC1
  IC50: 2.89 µM
  IC90: 3.4 µM

## CCCCS/C(N)=N/N=C/c1cc(C)ccc1O
  IC50: 22.7 µM
  IC90: 34.1 µM

## CCOC(=O)COc1ccc2c(c1)C(=O)CC(C)(c1cccnc1)O2 (stereo not drawn)
  IC50: 13.4 µM
  IC90: 32.5 µM

## CC1Cc2cc(-c3csc(NC(=O)Cc4cccs4)n3)ccc2N1S(C)(=O)=O (stereo not drawn)
  IC50: 36.2 µM
  IC90: > 100 µM

## O=[N+]([O-])c1cc([N+](=O)[O-])c2cc3ccccc3nc2c1
  IC50: < 0.2 µM
  IC90: 0.64 µM

## Cn1ccc(=Nc2ccc(NC(=O)c3ccc(N=c4ccn(C)c5ccc([N+](=O)[O-])cc45)cc3)cc2)cc1
  IC50: < 0.2 µM
  IC90: < 0.2 µM

## CCCc1ccc(C2=Nn3c(nnc3C(C)C)SC2)cc1
  IC50: 29.6 µM
  IC90: 51.1 µM

## CCN(CC)CCOC(=O)c1ccc(N/C=C(/C#N)c2nc(-c3ccc4c(c3)OCO4)cs2)cc1
  IC50: 62.2 µM
  IC90: > 100 µM

## O=C(C1CCCN(c2ncnc3c2nc2n3CCCCC2)C1)N1CCN(c2ccc(Cl)cc2)CC1 (stereo not drawn)
  IC50: 38.1 µM
  IC90: 51 µM

## CC1CCCN(Cc2c(O)ccc3c(=O)c(-c4nc5ccccc5s4)c(N)oc23)C1 (stereo not drawn)
  IC50: 11.7 µM
  IC90: 21 µM

## O=C(c1ccc(-c2cccc(C(F)(F)F)c2)o1)N1CCN(c2ccccc2O)CC1
  IC50: 24 µM
  IC90: 27.5 µM

## CCN(CC(=O)NCc1cccs1)C(=O)c1ccc([N+](=O)[O-])o1
  IC50: 91.9 µM
  IC90: > 100 µM

## CCCC(=O)Nc1ccc(C(=O)/C=C/c2ccc(SC)cc2)cc1
  IC50: 64.3 µM
  IC90: 85.4 µM

Reference: PubChem BioAssay AID449764 (Southern Research Specialized Biocontainment Screening …, 2010)
